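96-well plates; 48 h exposure; 5 concentrations. Endpoints by linear interpolation between flanking doses. Not reached: highest tested concentration assigned. Here, GI50 denotes the concentration required for 50% inhibition of growth.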 Calls of active or inactive are those of the source. No stated cut-off is given here; in the data, active = GI50 up to about 1.1 µM and inactive = higher.
Key:
Assay in all cases: growth of human tumour cells (NCI), 48 h
MOLT-4 = system: MOLT-4
UACC-257 = system: UACC-257
SF-268 = system: SF-268
A549 = system: A549
NCI-H460 = system: NCI-H460
Malme-3M = system: Malme-3M
RPMI-8226 = system: RPMI-8226
T47D = system: T47D
SW-620 = system: SW-620
UACC-62 = system: UACC-62
HCT-116 = system: HCT-116
HCC 2998 = system: HCC 2998
OVCAR-8 = system: OVCAR-8
U-251 = system: U-251
TK-10 = system: TK-10
NCI-H226 = system: NCI-H226
EKVX = system: EKVX
MDA-N = system: MDA-N
HOP-92 = system: HOP-92
SK-OV-3 = system: SK-OV-3

Measured: GI50

CSS(C)(=O)=O
inactive: MOLT-4 2.43 µM | UACC-257 23.9 µM | SF-268 31.5 µM | A549 44.7 µM | NCI-H460 > 100 µM | Malme-3M 26.9 µM | RPMI-8226 1.95 µM | T47D 15.1 µM | SW-620 46.7 µM | UACC-62 19.4 µM | HCT-116 58.6 µM | HCC 2998 27.8 µM | OVCAR-8 27.4 µM | U-251 37.1 µM | TK-10 24.7 µM | NCI-H226 21.4 µM | EKVX 27.9 µM

Nc1nc(N)nc(CC(=O)O)n1
inactive: MOLT-4 > 100 µM | UACC-257 > 100 µM | SF-268 > 100 µM | A549 > 100 µM | NCI-H460 > 100 µM | MDA-N > 100 µM | Malme-3M > 100 µM | HOP-92 > 100 µM | RPMI-8226 > 100 µM | T47D > 100 µM | SW-620 > 100 µM | SK-OV-3 > 100 µM | UACC-62 > 100 µM | HCT-116 > 100 µM | OVCAR-8 > 100 µM | U-251 > 100 µM | TK-10 > 100 µM | NCI-H226 > 100 µM | EKVX > 100 µM

Cc1cc2nc3c(C#N)c4c(c(Nc5ccc(Cl)cc5)n3c2cc1C)CCC4
inactive: MOLT-4 6.03 µM | UACC-257 16 µM | SF-268 18.4 µM | Malme-3M 23.8 µM | HOP-92 23.6 µM | RPMI-8226 3.66 µM | T47D 30.5 µM | SW-620 17.9 µM | SK-OV-3 > 100 µM | HCT-116 16.7 µM | OVCAR-8 19.3 µM | U-251 18.9 µM | TK-10 11.1 µM | NCI-H226 22.9 µM | EKVX 33.8 µM

CC(=O)O[C@H]1CCC2[C@@H]3CCC4=C(O)C(=O)C(C#N)C[C@]4(C)C3CC[C@@]21C (some centres not stated)
inactive: MOLT-4 30.5 µM | UACC-257 56.5 µM | SF-268 24.4 µM | A549 36.7 µM | NCI-H460 31.6 µM | Malme-3M 36.1 µM | HOP-92 3.8 µM | RPMI-8226 12.4 µM | SW-620 47.1 µM | SK-OV-3 29.4 µM | UACC-62 15.5 µM | HCT-116 29.5 µM | HCC 2998 29 µM | OVCAR-8 44.5 µM | U-251 47.8 µM | TK-10 18.2 µM | NCI-H226 24.9 µM | EKVX 41.7 µM

CC(=O)N(C)c1ccc(Nc2ccnc3ccc4nn(C)nc4c23)cc1
inactive: MOLT-4 13.6 µM | UACC-257 21.7 µM | SF-268 24.8 µM | A549 17.5 µM | MDA-N 36.1 µM | Malme-3M 18.9 µM | RPMI-8226 20.3 µM | T47D 20.1 µM | SW-620 35.3 µM | SK-OV-3 22.6 µM | UACC-62 16.1 µM | HCT-116 19 µM | OVCAR-8 36.1 µM | U-251 33.5 µM | TK-10 22.3 µM | NCI-H226 15.6 µM | EKVX 24.3 µM

CCOC(=O)c1c(-c2ccc(OC)cc2)c(C#N)c(=S)n(C2OC(COC(C)=O)C(OC(C)=O)C(OC(C)=O)C2OC(C)=O)c1C (configuration not stated)
inactive: MOLT-4 61.1 µM | UACC-257 > 100 µM | SF-268 > 100 µM | A549 > 100 µM | NCI-H460 > 100 µM | MDA-N > 100 µM | Malme-3M > 100 µM | HOP-92 4.32 µM | T47D 47.6 µM | SW-620 > 100 µM | SK-OV-3 > 100 µM | UACC-62 44.5 µM | HCT-116 > 100 µM | HCC 2998 > 100 µM | OVCAR-8 > 100 µM | U-251 > 100 µM | TK-10 > 100 µM | NCI-H226 > 100 µM | EKVX 78.2 µM

OC1C2CN3CCN(C2)CC1(c1ccccc1)C3 (configuration not stated)
inactive: MOLT-4 > 100 µM | UACC-257 > 100 µM | SF-268 > 100 µM | MDA-N > 100 µM | Malme-3M > 100 µM | RPMI-8226 > 100 µM | SW-620 > 100 µM | UACC-62 > 100 µM | HCT-116 > 100 µM | OVCAR-8 > 100 µM | U-251 > 100 µM | TK-10 > 100 µM | NCI-H226 > 100 µM | EKVX > 100 µM

CCCNC(=O)OCc1c(COC(=O)NCCC)c(-c2ccc(Cl)c(Cl)c2)n2c1CCC2
inactive: MOLT-4 3.11 µM | UACC-257 4.79 µM | SF-268 4.33 µM | A549 6.61 µM | NCI-H460 3.57 µM | Malme-3M 2.94 µM | HOP-92 2.52 µM | RPMI-8226 5.02 µM | T47D 11.4 µM | SW-620 4.63 µM | SK-OV-3 2.81 µM | UACC-62 2.8 µM | HCT-116 5.09 µM | OVCAR-8 4.36 µM | U-251 4.98 µM | TK-10 1.86 µM | NCI-H226 1.58 µM | EKVX 11.2 µM
